Results published in US20240408093A1, “HETEROBIFUNCTIONAL COMPOUNDS AND THEIR USE IN TREATING DISEASE” (HALDA THERAPEUTICS OPCO, INC., priority 2022, published 2024).
Values belong to the molecule of their own block, whether it stands above or below them.

Experiments:
[1] = biological target: T1, KRAS G12C C51S C80L C118S (amino acids 1-169) (Homo sapiens, UniProt P01116, C118S/C51S/C80L/G12C); experiment: Intact mass spec target engagement, KRAS G12C; assay type: binding; conditions: 24 hours post-reaction; 5 μM KRAS G12C, 50 μM compound
T1 construct: KRAS G12C C51S C80L C118S (amino acids 1-169)
Description: (§1) Exemplary heterobifunctional compounds were evaluated for intact mass spectrometry target engagement against KRAS G12C, BTK, or EGFR T790M L858R (amino acids 669-1011; Accession Number NP_005219.2), separately.
(§2) KRAS G12C: Samples were prepared using 5 μM of KRAS G12C C51S C80L C118S (amino acids 1-169) and 50 μM of heterobifunctional compound in a buffer containing 20 mM HEPES pH 7.5, 150 mM NaCl, and 1 mM TCEP. Protein was incubated with heterobifunctional compound at RT or 37° C. for the given amounts of time then flash-frozen and stored at −80° C. until analysis. Samples were transferred to HPLC vials and injected into Dionex UltiMate 3000 FLM HPLC system with a proprietary column (2.1×50 mm, 5 μm, 1000 Å) at 0.3 mL/minute in a column compartment at 50° C. and run on a Q Exactive Hybrid Quadrupole-Orbitrap Mass Spectrometer. Ion Max source with HESI-II probe were used, with a source voltage of 3.5 kV.
(§3) Results showing ability of exemplary heterobifunctional compounds to generate a modified target protein via intact mass spectrometry are shown in Table 13 below. The amount of different components identified by mass spectrometry at 24 hours post-reaction are listed in Table 14, wherein the different components include: • Un-modified Protein—this is starting protein material (e.g., KRAS G12C, BTK, or EGFR T790M L858R) that remained unchanged in the experiment. • Elimination-Conjugate Product—this is a conjugate formed by reaction of protein with the heterobifunctional compound to form a protein conjugate of the following general formula: […]
(§4) Exemplary Other Material can include, for example, residual impurities in the protein starting material used to conduct the experiment.

KRAS G12C = biological target: T2, KRAS G12C (Homo sapiens, UniProt P01116, C118S/C51S/C80L/G12C); experiment: Release of effector protein ligand from heterobifunctional compounds, KRAS G12C; assay type: biochemical; conditions: detected A1-3
T2 construct: KRAS G12C C51S C80L C118S (amino acids 1-169)
Description: (§5) Exemplary heterobifunctional compounds were evaluated for the ability to release an effector protein ligand in the presence of KRAS G12C, BTK, or EGFR T790M L858R target proteins.
(§6) Samples for mass spectrometry for KRAS G12C, BTK, and EGFR T790M L858R were prepared as described above for the intact mass spectrometry target engagement experiment, respectively, except rather than flash-freezing, 20 μL of sample was quenched with 50 μL of 100% acetonitrile. As well, a buffer-only control was used to detect latent release of effector protein ligand analyte. Internal standard (IS) solution consisted of 200 ng/mL propranolol and 50 ng/mL diclofenac in methanol:water 1:1 (v/v). A 4-point calibration curve (calibration standard (CS)) consisting of each analyte was made at final concentrations of 3 nM, 30 nM, 300 nM, and 3000 nM. Unknown samples were diluted such that the unknown analyte concentration was in the linear range of the calibration curve.
(§7) Samples for all proteins were prepared and analyzed from the following:
(§8) Samples were further analyzed with AB Sciex Triple Quad 5500 system coupled with Shimadzu Prominence HPLC.

[2] = biological target: T3, BTK (amino acids 387-659) (Homo sapiens, UniProt Q06187); experiment: Intact mass spec target engagement, BTK; assay type: binding; conditions: 24 hours post-reaction; 2 μM BTK, 20 μM compound
T3 construct: BTK (amino acids 387-659)
T3 sequence (Q06187 387-659): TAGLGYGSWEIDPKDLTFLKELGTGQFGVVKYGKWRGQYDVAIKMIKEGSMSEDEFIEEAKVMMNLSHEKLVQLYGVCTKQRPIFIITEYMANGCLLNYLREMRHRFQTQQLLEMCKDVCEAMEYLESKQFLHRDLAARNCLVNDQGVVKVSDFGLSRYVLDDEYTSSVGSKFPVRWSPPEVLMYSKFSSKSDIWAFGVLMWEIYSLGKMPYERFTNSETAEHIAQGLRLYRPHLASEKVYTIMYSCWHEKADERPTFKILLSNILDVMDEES
Description: as §1
as §2, with “BTK: Samples” for “KRAS G12C: Samples”, “using 2” for “using 5”, “of BTK” for “of KRAS G12C C51S C80L C118S”, “acids 387-659)” for “acids 1-169)”, “and 20” for “and 50”, “NaCl,” for “NaCl, and”
as §3, §4

BTK = biological target: T4, BTK (Homo sapiens, UniProt Q06187); experiment: Release of effector protein ligand from heterobifunctional compounds, BTK; assay type: biochemical; conditions: detected A1-3
T4 construct: BTK (amino acids 387-659)
T4 sequence (Q06187 387-659): as above
Description: as §5, §6, §7, §8

HEK293 cells = experiment: Cellular growth inhibition assay, HEK293 cells (Example 15); assay type: cell-based; conditions: Homo sapiens, 72 h, three days, CellTiter-Glo 2.0
Description: (§9) HEK293 and HeLa cells were cultured in DMEM medium supplemented with 10% fetal bovine serum and 1% Penn/Strep. Cells were seeded in white 384-well plates at 500 cells/well in 25 μL complete medium. Following seeding, plates were spun at 300×g for three minutes and cultured at 37° C. with 5% CO2 in a humidified tissue culture incubator.
(§10) After 24 hours, compounds were titrated in 100% DMSO and diluted in complete cell culture medium. A 25 μL aliquot of compound/media mixture was added to cells to bring total volume in the wells to 50 μL. DMSO alone was used as a negative control. Plates were then spun at 300×g for three minutes and stored at 37° C. with 5% CO2 for three days.
(§11) On Day 0 and Day 3 of compound treatment, cell viability was quantified with CellTiter-Glo 2.0 reagent (Promega). After equilibrating microplates at room temperature for 30 minutes, 25 μL CellTiter-Glo 2.0 reagent was dispensed into each well to bring total volume to 75 μL. Plates were mixed on a shaker for 2 minutes at 500 rpm, followed by a 10-minute incubation at room temperature. Following a quick spin, luminescence readings were measured with an EnVision Plate Reader. Data was normalized to DMSO treated Day 0 and Day 3 readings. […]

HeLa cells = experiment: Cellular growth inhibition assay, HeLa cells (Example 15); assay type: cell-based; conditions: Homo sapiens, 72 h, three days, CellTiter-Glo 2.0
Description: as §9, §10, §11

- Percent Other Material [1]: 10%
- Percent of Addition-Conjugate Product [1]: 5%
- Percent of Elimination-Conjugate Product [1]: 83%
- Percent of Un-modified Protein [1]: 2%
- Concentration of Effector Protein Ligand (KRAS G12C; Matrix Buffer + Protein (KRAS G12C), Time 0 h): 328 nM
- Concentration of Effector Protein Ligand (KRAS G12C; Matrix Buffer + Protein (KRAS G12C), Time 2 h): 556 nM
- Concentration of Effector Protein Ligand (KRAS G12C; Matrix Buffer + Protein (KRAS G12C), Time 8 h): 1170 nM
- Concentration of Effector Protein Ligand (KRAS G12C; Matrix Buffer + Protein (KRAS G12C), Time 24 h): 2020 nM
- Concentration of Effector Protein Ligand (KRAS G12C; Matrix Buffer, Time 0 h): 55.8 nM
- Concentration of Effector Protein Ligand (KRAS G12C; Matrix Buffer, Time 2 h): 85.3 nM
- Concentration of Effector Protein Ligand (KRAS G12C; Matrix Buffer, Time 8 h): 166 nM
- Concentration of Effector Protein Ligand (KRAS G12C; Matrix Buffer, Time 24 h): 406 nM
SMILES: C=C(Cn1cc(CNc2cc(N3CCCC[C@H]3CCO)nc3c(CC)cnn23)ccc1=O)C(=O)N1CCN(c2nc(OC[C@@H]3CCCN3C)nc3c2CCN(c2cccc4cccc(Cl)c24)C3)C[C@@H]1CC#N [Compound A1-2]

- Percent Other Material [2]: 0%
- Percent of Addition-Conjugate Product [2]: 24%
- Percent of Elimination-Conjugate Product [2]: 72%
- Percent of Un-modified Protein [2]: 4%
- Concentration of Effector Protein Ligand (BTK; Matrix Buffer + Protein (BTK), Time 0 h): 17.8 nM
- Concentration of Effector Protein Ligand (BTK; Matrix Buffer + Protein (BTK), Time 1 h): 281 nM
- Concentration of Effector Protein Ligand (BTK; Matrix Buffer + Protein (BTK), Time 4 h): 506 nM
- Concentration of Effector Protein Ligand (BTK; Matrix Buffer + Protein (BTK), Time 22 h): 460 nM
- Concentration of Effector Protein Ligand (BTK; Matrix Buffer, Time 0 h): 4.16 nM
- Concentration of Effector Protein Ligand (BTK; Matrix Buffer, Time 1 h): 4 nM
- Concentration of Effector Protein Ligand (BTK; Matrix Buffer, Time 4 h): 4.49 nM
- Concentration of Effector Protein Ligand (BTK; Matrix Buffer, Time 22 h): 10.4 nM
SMILES: C=C(Cn1cc(CNc2cc(N3CCCC[C@H]3CCO)nc3c(CC)cnn23)ccc1=O)C(=O)N1CCC[C@@H](n2nc(-c3ccc(Oc4ccccc4)cc3)c3c(N)ncnc32)C1 [Compound A1-4]

- GI50 (HeLa cells): > 10 µM
SMILES: C=C(CN(C(=O)NCc1ccc2c(c1)CN(C1CCC(=O)NC1=O)C2=O)c1ccc(C)c(Cl)c1)C(=O)N1CCC[C@@H](n2nc(-c3ccc(Oc4ccccc4)cc3)c3c(N)ncnc32)C1 (some centres unmarked) [Compound I-4]
- GI50 (HEK293 cells): 1.5 to 10 µM
